Experimental data as given in US20050032873A1, “3-Amino chroman and 2-amino tetralin derivatives” (Wyeth, priority 2003, published 2005).
Where two headings read alike, the source gives them in different places.

Columns and labels:
serotonin transporter = molecular target: T1, serotonin transporter (Rattus norvegicus, UniProt P31652); test: 5-HT transporter affinity: displacement of 3H-paroxetine from male rat cortical membranes; format: binding; details: displacement of 3H-paroxetine, male rat cortical membranes
T1 construct: displace ^3H-paroxetine from male rat cortical membranes; from tissue; host or cells: male rat cortical membranes

5-HT1A receptor [1] = molecular target: T2, 5-HT1A receptor (Homo sapiens, UniProt P08908); test: cAMP accumulation assay, 5-HT1A function; format: cell-based; details: for EC50: cells marked EC50 (agonist); for Emax: in brackets after EC50 or IC50, read-out: 5-HT1A Function cAMP (Emax); for IC50: cells marked IC50 (antagonist), read-out: 5-HT1A Function cAMP IC50
T2 sequence (P08908 1-422): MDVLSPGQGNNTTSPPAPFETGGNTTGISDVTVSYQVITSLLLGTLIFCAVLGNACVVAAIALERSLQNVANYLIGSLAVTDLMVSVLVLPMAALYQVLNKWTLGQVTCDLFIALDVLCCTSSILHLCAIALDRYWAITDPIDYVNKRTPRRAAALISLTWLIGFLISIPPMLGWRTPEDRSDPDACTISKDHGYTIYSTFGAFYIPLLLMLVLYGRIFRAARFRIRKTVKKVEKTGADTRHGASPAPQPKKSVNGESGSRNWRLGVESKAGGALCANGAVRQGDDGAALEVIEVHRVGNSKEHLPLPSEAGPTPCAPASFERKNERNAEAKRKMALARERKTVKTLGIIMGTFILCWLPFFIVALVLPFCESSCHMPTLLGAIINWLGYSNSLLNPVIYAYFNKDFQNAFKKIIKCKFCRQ

5-HT1A receptor [2] = molecular target: T2, 5-HT1A receptor; test: 5-HT1A receptor affinity: displacement of [3H] 8-OH-DPAT; format: binding; parameters: expressed in transfected cells; details: for Ki: displacement of [3H] 8-OH-DPAT, CHO cells stably transfected with human 5-HT1A receptors, read-out: 5-HT1A Receptor Affinity Ki; for inhibition at 1 µM: read-out: 5-HT1A Receptor Affinity, % @ 1 μM
[3] = molecular target: T3, cloned human 5-HT1A receptors (Homo sapiens, UniProt P08908); test: 35S-GTPγS binding assay, 5-HT1A function; format: biochemical; details: for EC50: agonist potency; for IC50: antagonist potency, reversal of 8-OH-DPAT, read-out: 5-HT1A Function GTPγS IC50
T3 construct: expressed in transfected cells
T3 sequence (P08908 1-422): T2 sequence (P08908 1-422)
Source text: The agonist or antagonist activity at 5-HT1A receptors was established by using two different assays. […] Agonists produce an increase in binding whereas antagonists produce no increase but rather reverse the effects of the standard agonist 8-OH-DPAT. The test compound's maximum stimulatory effect is represented as the Emax, while its potency is defined by the EC50. The test compound's maximum inhibitory effect is represented as the Imax, while its potency is defined by the IC50. The second assay measured cAMP accumulation upon binding of the ligand to the 5-HT1A receptor. […] The test compound's maximum stimulatory or inhibitory effect is represented as the Emax while its potency is defined by either IC50 for an antagonist or EC50 for an agonist. [^3H]-8-OH-DPAT was used to determine maximum agonist or antagonist response in both functional assays.

[4] = read-out: 5-HT Transporter Affinity Ki
[5] = maximum stimulatory effect, in brackets after EC50, read-out: 5-HT1A Function GTPγS (Emax)
[6] = maximum inhibitory effect, in brackets after IC50, read-out: 5-HT1A Function GTPγS (Imax)

T1 sequence (P31652 whole entry): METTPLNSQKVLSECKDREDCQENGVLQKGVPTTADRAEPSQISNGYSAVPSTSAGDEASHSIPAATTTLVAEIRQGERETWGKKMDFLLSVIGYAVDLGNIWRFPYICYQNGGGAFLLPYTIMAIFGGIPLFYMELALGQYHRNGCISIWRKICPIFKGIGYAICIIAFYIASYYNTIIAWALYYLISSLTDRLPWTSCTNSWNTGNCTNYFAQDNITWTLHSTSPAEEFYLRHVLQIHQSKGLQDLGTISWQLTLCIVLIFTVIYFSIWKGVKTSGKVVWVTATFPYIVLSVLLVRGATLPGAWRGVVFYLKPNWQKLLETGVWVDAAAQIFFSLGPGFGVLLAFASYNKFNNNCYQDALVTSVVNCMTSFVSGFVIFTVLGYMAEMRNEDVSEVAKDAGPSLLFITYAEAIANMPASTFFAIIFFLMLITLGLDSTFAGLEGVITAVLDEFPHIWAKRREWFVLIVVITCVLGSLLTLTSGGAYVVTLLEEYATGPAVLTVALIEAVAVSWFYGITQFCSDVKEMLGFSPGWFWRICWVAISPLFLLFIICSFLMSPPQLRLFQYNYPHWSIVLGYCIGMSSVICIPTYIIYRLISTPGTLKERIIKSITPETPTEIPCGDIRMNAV

Row | Structure (SMILES) | Ki (serotonin transporter; [4]) [nM] | EC50 (5-HT1A receptor [1]) [nM] | Emax (5-HT1A receptor [1]) [%] | Ki (5-HT1A receptor [2]) [nM] | IC50 (5-HT1A receptor [1]) [nM] | EC50 [3] [nM] | Emax [3, 5] [%] | IC50 [3] [nM] | Emax [3, 6] [%] | inhibition at 1 µM (5-HT1A receptor [2]) [%] | Ki (serotonin transporter; 5-HT Transporter Affinity Ki (nM)) [nM]
1 | CCCN(CCCCn1ccc2ccc(F)cc21)C1COc2c(F)ccc(C(N)=O)c2C1 (stereo not shown) [Compound 194, 8-Fluoro-3-[[4-(6-fluoro-1H-indol-1-yl)butyl](propyl)amino]chromane-5-carboxamide] | 70 | 74.1 | 81 | 10.7 |  |  |  |  |  |  | 
2 | NC(=O)c1ccc(F)c2c1CC(N(CCCCn1ccc3cc(F)ccc31)CC1CC1)CO2 (stereo not shown) [Compound 199, 3-{(Cyclopropylmethyl)[4-(5-fluoro-1H-indol-1-yl)butyl]amino}-8-fluorochromane-5-carboxamide] | 77 | 74.7 | 72 | 5.44 |  |  |  |  |  |  | 
3 | NC(=O)c1ccc(F)c2c1C[C@@H](N(CCCc1c[nH]c3c(F)cc(F)cc13)CC1CC1)CO2 [Compound 147, (3R)-3-{(cyclopropylmethyl)[3-(5,7-difluoro-1H-indol-3-yl)propyl]amino}-8-fluorochromane-5-carboxamide] | 10.7 |  | 0 | 3.04 | 505 |  |  |  |  |  | 
4 | CCN(CCCc1c[nH]c2ccc(OC)cc12)C1COc2c(F)ccc(C(N)=O)c2C1 (stereo not shown) [Compound 105, 3-{ethyl[3-(5-methoxy-1H-indol-3-yl)propyl]amino}-8-fluorochromane-5-carboxamide] | 236 | 96.7 | 81 | 24.3 |  |  |  |  |  |  | 
5 | CCCN(CCCCn1ccc2c(F)cccc21)C1COc2c(F)ccc(C(N)=O)c2C1 (stereo not shown) [Compound 202, 8-Fluoro-3-[[4-(4-fluoro-1H-indol-1-yl)butyl](propyl)amino]chromane-5-carboxamide] | 210 | 137 | 78 | 14 |  |  |  |  |  |  | 
6 | CC(C)CN(CCCc1c[nH]c2ccc(F)cc12)C1COc2cccc(C(N)=O)c2C1 (stereo not shown) [Compound 151, 3-[[3-(5-fluoro-1H-indol-3-yl)propyl](isobutyl)amino]chromane-5-carboxamide] | 1190 | 168 | 94 | 102 |  |  |  |  |  |  | 
7 | CCCCN(CCCc1coc2c(OC)cccc12)C1COc2c(F)ccc(C(N)=O)c2C1 (stereo not shown) [Compound 166, 3-{butyl[3-(7-methoxy-1-benzofuran-3-yl)propyl]amino}-8-fluorochromane-5-carboxamide] | 498 |  | 0 | 14.2 | 301 |  |  |  |  |  | 
8 | N#Cc1ccc2[nH]cc(CCCN(C3CCC3)[C@@H]3COc4c(F)ccc(C(N)=O)c4C3)c2c1 [Compound 97a, (3S)-3-[[3-(5-cyano-1H-indol-3-yl)propyl](cyclobutyl)amino]-8-fluorochromane-5-carboxamide] | 9 |  | 0 | 258 | 581 |  |  |  |  |  | 
9 | CCCN(CCCCc1coc2c(OC)cccc12)[C@H]1COc2c(F)ccc(C(N)=O)c2C1 [Compound 172, (3R)-8-fluoro-3-[[4-(7-methoxy-1-benzofuran-3-yl)butyl](propyl)amino]chromane-5-carboxamide] | 516 |  | 0 | 497 | 379 |  |  |  |  |  | 
10 | CCCN(CCCCn1ccc2cc(F)ccc21)C1COc2c(F)ccc(C(N)=O)c2C1 (stereo not shown) [Compound 198, 8-Fluoro-3-[[4-(5-fluoro-1H-indol-1-yl)butyl](propyl)amino]chromane-5-carboxamide] | 114 | 67.7 | 82 | 6.54 |  |  |  |  |  |  | 
11 | COC(=O)c1ccc(F)c2c1CC(N(CCCCc1c[nH]c3ccc(F)cc13)C1CCC1)CO2 (stereo not shown) [Compound 58, Methyl 3-{cyclobutyl[4-(5-fluoro-1H-indol-3-yl)butyl]amino}-8-fluorochromane-5-carboxylate] | 35.6 |  |  | 202 |  | 8020 | 49 |  |  |  | 
12 | CCCCNC(=O)c1ccc(F)c2c1CC(N(CCCc1c[nH]c3ccc(F)cc13)C1CCC1)CO2 (stereo not shown) [Compound 62, N-butyl-3-{cyclobutyl[3-(5-fluoro-1H-indol-3-yl)propyl]amino}-8-fluorochromane-5-carboxamide] | 4.55 |  |  |  |  |  |  | 1900 | 50 | 40 | 
13 | CCN(CCCc1c[nH]c2ccc(F)cc12)C1COc2c(F)ccc(C(=O)NC)c2C1 (stereo not shown) [Compound 89, 3-{ethyl[3-(5-fluoro-1H-indol-3-yl)propyl]amino}-8-fluoro-N-methylchromane-5-carboxamide] | 1.08 |  |  | 21.2 |  | 110 | 62 |  |  |  | 
14 | CCCNC(=O)c1cccc2c1CC(N(CCCc1c[nH]c3c(F)cc(F)cc13)C1CCC1)CO2 (stereo not shown) [Compound 140, 3-{cyclobutyl[3-(5,7-difluoro-1H-indol-3-yl)propyl]amino}-N-propylchromane-5-carboxamide] | 3.78 |  |  | 39.2 |  | 1020 | 65 |  |  |  | 
15 | CNC(=O)c1ccc(F)c2c1CC(NCCCCc1c[nH]c3ccc(F)cc13)CO2 (stereo not shown) [Compound 92, 8-fluoro-3-{[4-(5-fluoro-1H-indol-3-yl)butyl]amino}-N-methylchromane-5-carboxamide] | 7.95 |  |  |  |  | 1170 | 50 |  |  | 47 | 
16 | COc1cccc2c(CCCNC3COc4c(F)ccc(C(N)=O)c4C3)c[nH]c12 (stereo not shown) [Compound 99, 8-fluoro-3-{[3-(7-methoxy-1H-indol-3-yl)propyl]amino}chromane-5-carboxamide] | 525 |  |  |  |  |  |  | 4020 | 100 | 48 | 
17 | NC(=O)c1ccc(F)c2c1CC(N(CCCCn1ccc3ccc(F)cc31)C1CCC1)CO2 (stereo not shown) [Compound 196, 3-{Cyclobutyl[4-(6-fluoro-1H-indol-1-yl)butyl]amino}-8-fluorochromane-5-carboxamide] | 124 |  |  | 12.8 |  |  |  | 428 | 100 |  | 
18 | COC(=O)c1ccc(F)c2c1C[C@@H](N(CCCCc1c[nH]c3ccc(F)cc13)C1CCC1)CO2 [Compound 58b, Methyl (3R)-3-{cyclobutyl[4-(5-fluoro-1H-indol-3-yl)butyl]amino}-8-fluorochromane-5-carboxylate] | 29.2 |  |  | 138 |  |  |  | 626 | 94 |  | 
19 | CCCN(CCCCc1c[nH]c2ccc(F)cc12)C1COc2c(C(N)=O)ccc(F)c2C1 (stereo not shown) [Compound 124, 5-fluoro-3-[[4-(5-fluoro-1H-indol-3-yl)butyl](propyl)amino]chromane-8-carboxamide] | 9.9 |  |  |  |  | 698 | 41 |  |  | 48 | 
20 | O=C(O)c1ccc(F)c2c1CC(N(CCCc1c[nH]c3ccc(F)cc13)C1CCC1)CO2 (stereo not shown) [Compound 56, 3-{cyclobutyl[3-(5-fluoro-1H-indol-3-yl)propyl]amino}-8-fluorochromane-5-carboxylic acid] | 499 |  |  |  |  |  |  | 5000 | 50 | 4 | 
21 | CCN(CCc1c[nH]c2ccc(F)cc12)C1COc2c(F)ccc(C(=O)NC)c2C1 (stereo not shown) [Compound 85, 3-{ethyl[2-(5-fluoro-1H-indol-3-yl)ethyl]amino}-8-fluoro-N-methylchromane-5-carboxamide] |  |  |  |  |  |  |  | 3580 | 72 | 46 | 35.4
22 | O=C(NC1CC1)c1cccc2c1CC(N(CCCc1c[nH]c3c(F)cc(F)cc13)C1CCC1)CO2 (stereo not shown) [Compound 142, 3-{cyclobutyl[3-(5,7-difluoro-1H-indol-3-yl)propyl]amino}-N-cyclopropylchromane-5-carboxamide] | 3.88 |  |  | 4.03 |  | 122 | 54 |  |  |  | 
23 | CCCN(CCCc1c[nH]c2ccc(F)cc12)C1COc2c(C(N)=O)ccc(F)c2C1 (stereo not shown) [Compound 120, 5-fluoro-3-[[3-(5-fluoro-1H-indol-3-yl)propyl](propyl)amino]chromane-8-carboxamide] | 22.5 |  |  | 139 |  | 1100 | 67 |  |  |  | 
24 | CC(C)NC(=O)c1cccc2c1CC(N(CCCc1c[nH]c3c(F)cc(F)cc13)C1CCC1)CO2 (stereo not shown) [Compound 141, 3-{cyclobutyl[3-(5,7-difluoro-1H-indol-3-yl)propyl]amino}-N-isopropylchromane-5-carboxamide] | 3.52 |  |  | 7.69 |  | 287 | 99 |  |  |  | 
25 | CNC(=O)c1cccc2c1CC(N(CCCc1c[nH]c3c(F)cc(F)cc13)C1CCC1)CO2 (stereo not shown) [Compound 138, 3-{cyclobutyl[3-(5,7-difluoro-1H-indol-3-yl)propyl]amino}-N-methylchromane-5-carboxamide] | 3.34 |  |  | 1.27 |  | 43 | 100 |  |  |  | 
